According to ChEMBL document CHEMBL5727681, “Alkoxy compounds for disease treatment” (2020):

Assay: In Vitro Isomerase Inhibition Assay: Isomerase inhibition reactions were performed essentially as described (Stecher et al., J Biol. Chem. 274:8577-85 (1999).

IC50, < 100 nM:
NCCC(=O)c1cccc(OCC2CCCCC2)c1, NCCC(=O)c1cccc(OCC2CCCCCC2)c1, NCCC(O)c1cccc(OCC2(O)CCCCC2)c1 (stereo unspecified), CCCC(CCC)COc1cccc(CCCN)c1, NCCCc1cccc(OCC2CCCCC2)c1, CCCC(O)(CCC)COc1cccc(C(O)CCN)c1 (stereo unspecified), CCC(CC)COc1cccc(CCCN)c1, NCCCc1cccc(OCC2(O)CCCCC2)c1, NCCOc1cccc(OCC2CCCCCC2)c1, NCC(O)Cc1cccc(OCC2CCCCC2)c1 (stereo unspecified), NCCOc1cccc(OCC2CCCCC2)c1
